Here are results for two compounds from publication PMC5979600, “An Organic Solvent-Tolerant Lipase with Both Hydrolytic and Synthetic Activities from the Oleaginous Fungus Mortierella echinosphaera” (International Journal of Molecular Sciences, 2018).

In this assay the test system is T1, extracellular lipase from Mortierella echinosphaera CBS 575.75 (M. echinosphaera lipase).
T1 construct: native enzyme purified from culture filtrate (ammonium sulfate, Sephadex G-75, Macro-Prep High Q, Sephacryl S-200 HR); about 30 kDa by SDS-PAGE
The experiment in a line: p-nitrophenol release, Lineweaver-Burk. It counts as biochemical. Conditions: pH 6.8, 25 °C, 30 min, 0.05-3.2 mM substrate; free enzyme.

Consider `CCCCCCCCCCCCCCCC(=O)Oc1ccc([N+](=O)[O-])cc1` [p-nitrophenyl palmitate], for which the Km (in general, the concentration of substrate that gives half-maximal velocity) was 336 µM.
Then `CCCCCCCCCC(=O)Oc1ccc([N+](=O)[O-])cc1` [pNP-decanoate], with 333 µM.
